Here are results for 21 molecules from patent US5530138A, “Compounds and use thereof” (priority 1993, dated 1996).

The target in the first experiment is T1, binding of 3H-pirenzepine to brain homogenate of rat (Rattus norvegicus, UniProt P08482).
T1 construct: from tissue; host or cells: brain of male SD rats, cerebellum removed; supernatant of 1000×g, re-homogenized
T1 sequence (P08482 1-460): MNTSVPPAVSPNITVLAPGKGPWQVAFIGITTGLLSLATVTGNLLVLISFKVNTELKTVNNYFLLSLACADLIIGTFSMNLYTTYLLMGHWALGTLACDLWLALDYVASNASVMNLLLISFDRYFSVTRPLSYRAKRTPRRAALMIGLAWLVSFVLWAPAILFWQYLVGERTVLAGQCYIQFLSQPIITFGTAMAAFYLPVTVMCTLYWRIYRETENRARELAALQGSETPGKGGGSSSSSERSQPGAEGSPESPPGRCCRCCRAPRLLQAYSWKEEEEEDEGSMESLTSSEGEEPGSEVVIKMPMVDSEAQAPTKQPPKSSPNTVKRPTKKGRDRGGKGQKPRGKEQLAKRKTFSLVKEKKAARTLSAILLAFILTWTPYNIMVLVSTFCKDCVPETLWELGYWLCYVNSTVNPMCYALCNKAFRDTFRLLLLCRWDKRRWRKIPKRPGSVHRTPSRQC
In words: Inhibition against binding of 3H-pirenzepine to brain homogenate of rat. The settings on record: 2.0 nM 3H-pirenzepine; rat brain homogenate without cerebellum; 550 mM phosphate buffer pH 7.4; 60 minutes at room temperature; read-out: 50% inhibition (IC50) against binding of 3H-pirenzepine to brain homogenate. The procedure: (Inhibition against binding of 3H-pirenzepine to brain homogenate of rat)
A brain homogenate of rat was prepared in accordance with the method described by Yamanura and Synder ["Proc. Natr. Acad. Sci. USA", Vol. 71, pages 1725-1729 (1974)]. Namely, SD male rats were killed by decapitation to exentrate each brain. From the brains, each cerebellum was removed and 0.32 M aqueous sucrose solution in 10-folds by volume was added under ice-cooling condition to homogenize the same by a Potter-Elvehjem type glass homogenizer. The resulting homogenate was centrifuged for 10 minutes (1000×g) to obtain a supernatant by removing a precipitate, which supernatant was further homogenized by a homogenizer of "Polytron" to obtain a fraction to be used as a brain homogenate.
Tests were carried out according to the method described by Flynn and Mash ["J. Pharm. Exp. Ther.", Vol. 250, pages 573-581 (1989). Namely, to the brain homogenate (0.035 ml, protein content: 0.6 mg), 550 mM phosphate buffer (pH 7.4, 1 ml) containing 2.0 nM ^3 H-pirenzepine and a Test or Control compound (1 ml, if the test or control compound is solid form, it is dissolved by the 550 mM phosphate buffer) were added to cause a reaction for 60 minutes at room temperature. Then, an ice-cooled buffer (3.0 ml) same with the above was added to the reaction mixture. Thereafter, the mixture was filtrated by a Whattman GF/B filter which was previously dipped in 0.1% polyethyleneimine solution for 60 minutes. The filter was washed twice by the buffer solution (each 3.0 ml) and an emulsion scintillatot for measuring luminescence by a scintillation counter. A 50% inhibition (IC50)of the test or control compound against binding of 3H-pirenzepine to brain homogenate was calculated.
For the molecule `CN(CC12CCCN1CCC2)c1cccc2ccccc12` [Example 6, 1-[N-(1-Azabicyclo[3.3.0]octan-5-yl)methyl-N-methylamino]-naphthalene], the IC50 – broadly, the point on the concentration scale where inhibition reaches its midpoint – stood at 30 nM.
Regarding `O=CN(CC12CCCN1CCC2)c1ccccc1` [Example 13, N-(1-azabicyclo[3.3.0]octan-5-yl)methyl-N-formylaniline], the IC50 worked out at 300 nM.
On to `O=[N+]([O-])c1ccccc1NCCC12CCCN1CCC2` [Example 36, N-[2-(1-Azabicyclo[3.3.0]octan-5-yl)ethyl]-2-nitroaniline(fumarate)], for which the IC50 was found to be 90 nM.
`O=[N+]([O-])c1ccccc1NCCC12CCCN1CCC2` [Example 23, N-[2-(1-Azabicyclo[3.3.0]octan-5-yl)ethyl]-2-nitroaniline]: the half-maximal inhibitory concentration (IC50) turned out to be 100 nM.
Regarding `CN(CC12CCCN1CCC2)c1ccc(F)c2ccccc12` [Example 8, 1-[N-(1-Azabicyclo[3.3.0]octan-5-yl)methyl-N-methylamino]-4-fluoronaphthalene], the concentration for half-maximal inhibition (IC50) was determined as 20 nM.
On the same count and under the same terms, the same measure for `CCN(CC12CCCN1CCC2)c1ccc([N+](=O)[O-])c2ccccc12` [Example 12, 1-[N-(1-azabicyclo[3.3.0]octan-5-yl)methyl-N-ethylamino]-4-nitronaphthalene]: 200 nM; for `C=C1CC2(CCN(C)CC2)OC1C` (stereo not drawn) [2,8-Dimethyl-3-methylene-1-oxa-8-azabicyclo-[4.5]decane, reference compound]: 23600 nM.
Still for that read-out and setting: the same measure for `CN(CCC12CCCN1CCC2)c1ccccc1[N+](=O)[O-]` [Example 25, N-[2-(1-Azabicyclo[3.3.0]octan-5-yl)ethyl]-N-methyl-2-nitroaniline]: 200 nM; for `N#Cc1ccccc1NCCC12CCCN1CCC2` [Example 27, 2-[2-(1-Azabicyclo[3.3.0]octan-5-yl)ethylamino]benzonitrile]: 320 nM; for `O=[N+]([O-])c1cc(F)ccc1NCCC12CCCN1CCC2` [Example 32, N-[2-(1-Azabicyclo[3.3.0]octan-5-yl)ethyl]-4-fluoro-2-nitroaniline]: 690 nM.
The same measure, in the same setting: in the case of `COc1ccc(N(C)CC23CCCN2CCC3)c2ccccc12` [Example 3, 1-[N-(1-Azabicyclo[3.3.0]octan-5-yl)methyl-N-methylamino]-4-methoxynaphthalene] it was 90 nM; in that of `Clc1ccccc1NCCC12CCCN1CCC2` [Example 30, N-[2-(1-Azabicyclo[3.3.0]octan-5-yl)ethyl]-2-chloroaniline], 430 nM; in that of `N#Cc1ccc(NCCC23CCCN2CCC3)cc1` [Example 28, 4-[2-(1-Azabicyclo[3.3.0]octan-5-yl)ethylamino]-benzonitrile], 4570 nM.
`CN(CCC12CCCN1CCC2)c1ccccc1C#N` [Example 29, 2-{[2-(1-Azabicyclo[3.3.0]octan-5-yl)ethyl]methylamino}-benzonitrile]: the IC50 stood at 240 nM.
`N#Cc1ccccc1NCC12CCCN1CCC2` [Example 34, 2-[(1-Azabicyclo[3.3.0]octan-5-yl)methylamino]benzonitrile]: the half-inhibitory concentration (IC50) stood at 550 nM.
In the case of `CN(CC12CCCN1CCC2)c1ccccc1[N+](=O)[O-]` [Example 17, N-(1-azabicyclo[3.3.0]octan-5-yl)methyl-N-methyl-2-nitroaniline], the IC50 was found to be 200 nM.
The same measure, in the same setting: the same measure for `CN(CC12CCCN1CCC2)c1ccccc1-c1ccccc1` [Example 20, N-(1-Azabicyclo[3.3.0]octan-5-yl)methyl-N-methyl-2-phenylaniline]: 100 nM; for `CN(CC12CCCN1CCC2)c1ccc(Cl)c2ccccc12` [Example 1, 1-[N-(1-Azabicyclo[3.3.0]octan-5-yl)methyl-N-methylamino]-4-chloronaphthalene]: 10 nM; for `Fc1ccccc1NCCC12CCCN1CCC2` [Example 31, N-[2-(1-Azabicyclo[3.3.0]octan-5-yl)ethyl]-2-fluoroaniline]: 1590 nM.

The experiment is the same for the next values; noted with them: read-out: 50% inhibition (IC50) against binding of 3H-pirenzepine to brain homogenate; 2.0 nM 3H-pirenzepine; rat brain homogenate without cerebellum; 550 mM phosphate buffer pH 7.4; 60 minutes at room temperature.
`NC(=O)c1ccccc1NCCC12CCCN1CCC2` [Example 33, 2-{[2-(1-Azabicyclo[3.3.0]octan-5-yl)ethyl]amino}benzamide]: the concentration for half-maximal inhibition (IC50) was found to be 1110 nM.

A further experiment deals with acetylchotine esterass.
Experiment: not given
The following applies: background; cited from earlier work.
On to `Nc1c2c(nc3ccccc13)CCCC2` [THA, 1,2,3,4tetrahydro-9-aminoacridine], for which the “inhibition to acetylcholine esterase” value is listed as “its action cannot be said as powerful”.
